According to patent US7459458B2, “Polymorph of N-methyl-N-(3-{3-[2-thienylcarbonyl]-pyrazol-[1,5-α]-pyrimidin-7-yl}phenyl)acetamide and compositions and methods related thereto” (Neurocrine Biosciences, Inc., priority 2002, dated 2008):

Assay: Interconversion experiments (slurry) to evaluate thermodynamic stability of Compound 1 at room temperature
Format: physicochemical
Conditions: agitated 16 days
Procedure: Interconversion experiments were carried out to evaluate the thermodynamic stability of Compound 1 at room temperature. Three slurries were prepared by making saturated isopropanol solutions of Compound 1, filtering the solutions through 0.2 μm filters, and then adding an amount (in the form of crystals) of a polymorphic form of Compound 1. To the first slurry, equal amounts of both polymorph Form II and polymorph Form III (i.e., approximately 25 mg each) were added; to the second slurry, equal amounts of polymorph From I and polymorph Form III (i.e., approximately 25 mg each) were added; and to the third slurry, approximately 25 mg of polymorph Form III was added. The slurries were then agitated for 16 days. The resulting solids were collected by vacuum filtration, air-dried, and analyzed using XRPD.

CC(=O)N(C)c1cccc(-c2ccnc3c(C(=O)c4cccs4)cnn23)c1 [polymorph Form III, N-methyl-N-(3-{3-[2-thienylcarbonyl]-pyrazol-[1,5-α]-pyrimidin-7-yl}phenyl)acetamide]
solid form obtained from slurry (XRPD) (saturated isopropanol slurry seeded with approx. 25 mg polymorph Form III alone): exclusively polymorph Form III | solid form obtained from slurry (XRPD) (saturated isopropanol slurry seeded with equal amounts (approx. 25 mg each) of polymorph Form I and Form III): polymorph Form III as the predominant product, with only a minor amount of polymorph Form I | solid form obtained from slurry (XRPD) (saturated isopropanol slurry seeded with equal amounts (approx. 25 mg each) of polymorph Form II and Form III): exclusively polymorph Form III
